Biological target: JNK3 (Homo sapiens, UniProt P53779)
Assay: JNK3 SPA assay (phosphorylation of GST-c-Jun)
Type: biochemical
Details: 3.33 μM ATP, GST-c-Jun substrate, read-out: IC50 against JNK3
Protocol: JNK1, JNK2, JNK3—SPA Assay
JNK1, JNK2, JNK3—SPA Assay • 1. Compound is dissolved in DMSO to a convenient concentration and this is diluted in 10% DMSO to a five times concentrate of the desired starting concentration (frequently 1:100). • 2. 10 μl of 500 mM EDTA is added to alternative wells of the Opti-plate row, which will receive kinase reaction plus DMSO. This creates the negative control. • 3. For the JNK2 and JNK3 assay, compounds are prepared in six 2-fold dilutions with water and each concentration is tested in duplicate. For the JNK1 assay compounds are prepared in four 5-fold dilutions with water which are tested in triplicate. Controls are treated identically. • 4. 20 μl per well of each compound concentration is transferred to an Opti-plate, in duplicate. • 5. 30 μl (JNK2/3 SPA) or 50 μl (JNK1 SPA) of substrate solution (25 mM HEPES pH 7.5, 10 mM magnesium acetate with 3.33 μM ATP (JNK2/3) or 2 μM ATP (JNK1), approximately 7.5 kBq [γ-^33P] ATP, GST-c-Jun, in water) is added to each well. • 6. 50 μl (JNK2/3 SPA) or 30 μl (JNK1 SPA) of kinase solution (JNK in 25 mM HEPES pH 7.5, 10 mM Mg Acetate) is added to each well.
• 7. The plate is incubated for 30 minutes at room temperature. • 8. 100 μl of bead/stop solution is added to each well (5 mg/ml glutathione-PVT-SPA beads, 40 mM ATP in PBS). • 9. Plates are sealed and incubated for 30 minutes at room temperature, centrifuged for 10 minutes at 2500 g and counted. • 10. The IC50 values are calculated as the concentration of the compound being tested at which the phosphorylation of c-Jun is decreased to 50% of the control value.

Chain of JNK3 (P53779 whole entry, species assumed): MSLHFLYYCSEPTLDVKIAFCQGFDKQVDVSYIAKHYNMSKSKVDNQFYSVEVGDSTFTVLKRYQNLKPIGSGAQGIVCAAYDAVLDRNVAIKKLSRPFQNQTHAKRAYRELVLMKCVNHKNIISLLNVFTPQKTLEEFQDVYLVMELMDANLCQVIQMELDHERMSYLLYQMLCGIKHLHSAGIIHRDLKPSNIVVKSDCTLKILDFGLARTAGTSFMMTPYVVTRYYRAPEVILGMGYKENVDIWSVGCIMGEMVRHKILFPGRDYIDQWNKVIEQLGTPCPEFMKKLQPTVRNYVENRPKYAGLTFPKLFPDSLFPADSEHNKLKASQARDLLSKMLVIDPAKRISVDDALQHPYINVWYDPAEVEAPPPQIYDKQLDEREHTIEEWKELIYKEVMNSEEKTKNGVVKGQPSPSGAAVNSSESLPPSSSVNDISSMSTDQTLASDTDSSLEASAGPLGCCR

| SMILES | IC50 [nM] |
| --- | --- |
| CCC1CC=C(c2cnc3[nH]cc(-c4csc(C(=O)N5CCOCC5)n4)c3c2)CC1 (stereo not shown) [Compound I-27, {4-[5-(4-Ethyl-cyclohex-1-enyl)-1H-pyrrolo[2,3-b]pyridin-3-yl]-thiazol-2-yl}-morpholin-4-yl-methanone] | 447 |
| CN1CCC(c2nc(-c3c[nH]c4ncc(C5=CCCC5)cc34)cs2)CC1 [Compound I-1, 5-Cyclopent-1-enyl-3-[2-(1-methyl-piperidin-4-yl)-thiazol-4-yl]-1H-pyrrolo[2,3-b]pyridine] | 434 |
| CN1CCCC1c1nc(-c2c[nH]c3ncc([C@H]4CC[C@@H](N5CCCOCC5)CC4)cc23)cs1 (stereo partly shown) [Compound I-114, 4-((1s,4s)-4-(3-(2-(1-methylpyrrolidin-2-yl)thiazol-4-yl)-1H-pyrrolo[2,3-b]pyridin-5-yl)cyclohexyl)-1,4-oxazepane] | 1440 |
| FC(F)(F)c1csc(-c2c[nH]c3ncc([C@H]4CC[C@@H](N5CCOCC5)CC4)cc23)n1 [Compound I-70, 4-((1s,4s)-4-(3-(4-(trifluoromethyl)thiazol-2-yl)-1H-pyrrolo[2,3-b]pyridin-5-yl)cyclohexyl)morpholine] | 1100 |
| CC1CC=C(c2cnc3[nH]cc(-c4csc(C(=O)N5CCOCC5)n4)c3c2)CC1 (stereo not shown) [Compound I-13, {4-[5-(4-Methyl-cyclohex-1-enyl)-1H-pyrrolo[2,3-b]pyridin-3-yl]-thiazol-2-yl}-morpholin-4-yl-methanone] | 151 |
| CN1CCN([C@H]2CC[C@@H](c3cnc4[nH]cc(-c5nc(C(F)(F)F)cs5)c4c3)CC2)CC1 [Compound I-83, 2-(5-((1s,4s)-4-(4-methylpiperazin-1-yl)cyclohexyl)-1H-pyrrolo[2,3-b]pyridin-3-yl)-4-(trifluoromethyl)thiazole] | 603 |
| c1nc(-c2c[nH]c3ncc([C@H]4CC[C@H](N5CCOCC5)CC4)cc23)cs1 [Compound I-59, 4-((1r,4r)-4-(3-(thiazol-4-yl)-1H-pyrrolo[2,3-b]pyridin-5-yl)cyclohexyl)morpholine] | 813 |
| CN1CCC(c2nc(-c3c[nH]c4ncc(C5CCC6(CC5)OCCO6)cc34)cs2)CC1 [Compound I-23, 5-(1,4-Dioxa-spiro[4.5]dec-8-yl)-3-[2-(1-methyl-piperidin-4-yl)-thiazol-4-yl]-1H-pyrrolo[2,3-b]pyridine] | 724 |
| CN1CCN(C(=O)c2nc(-c3c[nH]c4ncc(C5=CCCC5)cc34)cs2)CC1 [Compound I-5, [4-(5-Cyclopent-1-enyl-1H-pyrrolo[2,3-b]pyridin-3-yl)-thiazol-2-yl]-(4-methyl-piperazin-1-yl)-methanone] | 86 |
| CN(C)C(=O)c1nc(-c2c[nH]c3ncc(C4CCCCC4)cc23)cs1 [Compound I-9, 4-[5-cyclohexyl-1H-pyrrolo[2,3-b]pyridin-3-yl]-thiazole-2-carboxylic acid dimethylamide] | 147 |
| CC1CC=C(c2cnc3[nH]cc(-c4csc(C(=O)N5CCN(C)CC5)n4)c3c2)CC1 (stereo not shown) [Compound I-14, {4-[5-(4-Methyl-cyclohex-1-enyl)-1H-pyrrolo[2,3-b]pyridin-3-yl]-thiazol-2-yl}-(4-methyl-piperazin-1-yl)-methanone] | 105 |
| c1nc(-c2c[nH]c3ncc(C4CCCCC4)cc23)cs1 [Compound I-49, 4-(5-cyclohexyl-1H-pyrrolo[2,3-b]pyridin-3-yl)thiazole] | 89 |
| Cc1nc(-c2c[nH]c3ncc([C@H]4CC[C@H](N5CCCOCC5)CC4)cc23)cs1 [Compound I-75, 4-((1r,4r)-4-(3-(2-methylthiazol-4-yl)-1H-pyrrolo[2,3-b]pyridin-5-yl)cyclohexyl)-1,4-oxazepane] | > 1000 |
| CC1CCC(c2cnc3[nH]cc(-c4csc(C(=O)N5CCN(C)CC5)n4)c3c2)CC1 (stereo not shown) [Compound I-22, {4-[5-(4-Methyl-cyclohexyl)-1H-pyrrolo[2,3-b]pyridin-3-yl]-thiazol-2-yl}-(4-methyl-piperazin-1-yl)-methanone] | 16 |

Tested on: panel of 100 kinases
Assay: Selectivity against a panel of kinases (Upstate/Millipore), expressed as Gini coefficient
Type: biochemical
Details: reference compounds with aromatic C(5) group, calculated from Table 4 data, concentration not given
Protocol: Selectivity of Compounds (I) Against a Panel of Kinases
Inhibitory potency of compound (I-8) and (I-60) at a concentration of 1 micromolar and (I-69) and (I-70) at a concentration of 5 micromolar with ATP concentration of 10 micromolar was determined at Upstate/Millipore against a panel of 100 kinases representing all major families within the kinome. The results are presented in Table 3 and are expressed as percentage of remaining activity.
For comparison purposes Table 4 contains the relevant inhibitory data for reference compounds A-L containing a (hetero)aromatic ring at C(5) of the 7-azaindole system.
Selectivity Expressed as Gini Coefficient
Selectivity of compounds according to the present invention and reference compounds expressed as Gini coefficient (J. Med. Chem. 2007, 50, 5773-5779) is shown in Table 5. The individual Gini coefficients have been calculated using the data in Tables 3 and 4. Value Gini=0 corresponds to a totally non-selective compound; value Gini=1 reflects perfect selectivity (inhibition of a single target only)

| SMILES | Selectivity expressed as Gini coefficient |
| --- | --- |
| c1nc2[nH]cc(-c3cn[nH]c3)c2cc1-c1csc(C2CCNCC2)n1 [C] | 0.4129 |
| CN1CCN(c2nc(-c3c[nH]c4ncc(-c5ccccc5)cc34)cs2)CC1 [H] | 0.4917 |
| CN1CCC(c2csc(-c3cnc4[nH]cc(-c5cnn(C)c5)c4c3)n2)CC1 [E] | 0.3757 |
| CN(C)c1ccc(-c2cnc3[nH]cc(-c4cn[nH]c4)c3c2)cc1 [A] | 0.3368 |
| CN1CCN(C(=O)c2nc(-c3c[nH]c4ncc(-c5ccc(N6CCN(C)CC6)cc5)cc34)cs2)CC1 [J] | 0.3286 |
| CN(C)C(=O)c1nc(-c2c[nH]c3ncc(-c4ccccc4)cc23)cs1 [G] | 0.3501 |
| O=C(c1nc(-c2c[nH]c3ncc(-c4ccccc4)cc23)cs1)N1CCOCC1 [K] | 0.2968 |
| c1ncc(-c2c[nH]c3ncc(-c4ccc(N5CCOCC5)cc4)cc23)s1 [L] | 0.3642 |
| CC(C)Cn1cc(-c2cnc3[nH]cc(-c4cnn(C)c4)c3c2)cn1 [F] | 0.3777 |
| Cn1cc(-c2c[nH]c3ncc(-c4ccc(N5CCOCC5)cc4)cc23)cn1 [B] | 0.3920 |
| CN1CCN(c2ccc(-c3cnc4[nH]cc(-c5csc(C(=O)N6CCCCC6)n5)c4c3)cc2)CC1 [D] | 0.2705 |
